Test system: human embryonic stem cell line H1
Experiment: Immune staining for insulin, glucagon and somatostatin hormones at end of stage 5 (Example 13)
Assay type: cell-based
Conditions: percentage of the entire hormone count at S5 day 3
Protocol: Cells of the human embryonic stem cell line H1 at various passages (passage 40 to passage 52) were seeded as single cells at a density of 100,000 cells/cm^2 on MATRIGEL™ (1:30 dilution) coated dishes in mTesr™1 media and 10 μM of Y27632. Forty eight hours post seeding, cultures were differentiated into pancreatic endocrine lineage as follows: • a. Stage 1 (Definitive Endoderm (DE)−3 days): Prior to start of DE, the cultures were washed and incubated with incomplete PBS (no Mg or Ca) for 30 seconds followed by addition of the stage 1 media. Human embryonic stem cells cultured as single cells on MATRIGEL™-coated dishes were treated with MCDB-131 medium supplemented with 0.1% fatty acid-free BSA, 0.0012 g/ml sodium bicarbonate, 1× GLUTAMAX™, 5 mM D-Glucose, 100 ng/ml GDF8, 1 μM MCX compound (GSK3B inhibitor) for one day. Cells were then treated with MCDB-131 medium supplemented with 0.1% fatty acid-free BSA, sodium bicarbonate, GLUTAMAX™, extra 5 mM glucose, 100 ng/ml GDF8, and 100 nM MCX compound for day two followed by an additional day in MCDB-131 medium supplemented with 0.1% fatty acid-free BSA, 0.0012 g/ml sodium bicarbonate, 1× GLUTAMAX™, 5 mM Glucose, and 100 ng/ml GDF8. • b. Stage 2 (Primitive gut tube−2 days): Cells were treated with MCDB-131 medium supplemented with 0.1% fatty acid-free BSA, 0.0012 g/ml sodium bicarbonate, 1× GLUTAMAX™, 5 mM D-Glucose, 0.25 mM ascorbic acid, and 25 ng/ml FGF7 and for two days, then • MCDB131supplemented with 1:200 dilution of ITS-X, 2.5 mM Glucose, 1× GLUTAMAX™, 0.0015 g/ml sodium bicarbonate, 2% fatty acid-free BSA, 10 ng/ml Activin A, 25 ng/ml FGF7, 0.25 mM ascorbic acid, 0.25 μM SANT-1, 1 μM RA, 200 nM TPB, 100 nM LDN-193189 for day 1, followed by treatment with tMCDB131supplemented with 1:200 dilution of ITS-X, 2.5 mM Glucose, 1× GLUTAMAX™, 0.0015 g/ml sodium bicarbonate, 2% fatty acid-free BSA, 10 ng/ml Activin A, 25 ng/ml FGF7, 0.25 mM ascorbic acid, 0.25 μMSANT-1, 1 μM RA, 200 nM TPB, 10 nM LDN-193189 for an additional day. • d. […]

`O=C1O[C@H]([C@@H](O)CO)C(O)=C1O` [ascorbic acid] was tested, and the “% Polyhormonal” value (treatment at S5) was 44%, the “% glucagon + plus % somatostatin+” value (treatment at S5) was 44% and the “% single hormonal Insulin+” value (treatment at S5 (0.1 mM ascorbic acid, 50 nM RA, 0.25 μM SANT-1, 1 μM Alk5 inh)) was 12%.

Source: patent publication US12215354B2, “Differentiation of human embryonic stem cells into single hormonal insulin positive cells” (Janssen Biotech, Inc., priority 2011, dated 2025)
